Assay [1] has as its target T1, hM4 receptors (Homo sapiens, UniProt P08173).
T1 construct: expressed in transfected cells; host or cells: CHO cells
T1 sequence (P08173 1-479): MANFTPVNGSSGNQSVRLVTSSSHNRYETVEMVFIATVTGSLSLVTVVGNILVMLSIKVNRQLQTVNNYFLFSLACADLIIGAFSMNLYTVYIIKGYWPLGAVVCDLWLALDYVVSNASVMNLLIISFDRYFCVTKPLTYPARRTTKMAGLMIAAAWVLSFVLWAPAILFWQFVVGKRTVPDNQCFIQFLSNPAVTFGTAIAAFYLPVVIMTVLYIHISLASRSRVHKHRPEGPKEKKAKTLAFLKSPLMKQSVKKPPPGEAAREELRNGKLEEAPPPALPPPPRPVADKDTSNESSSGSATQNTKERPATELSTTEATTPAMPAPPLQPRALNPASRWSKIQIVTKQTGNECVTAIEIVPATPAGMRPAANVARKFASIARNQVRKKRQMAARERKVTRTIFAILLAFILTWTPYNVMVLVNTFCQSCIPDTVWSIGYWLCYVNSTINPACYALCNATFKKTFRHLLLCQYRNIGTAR
Kind of assay: Human M4 PAM pERK assay. In kind it is cell-based. The note with it: CHO cells expressing hM4; EC20 of acetylcholine (10 nM final); TR-FRET. In general terms: TR-FRET usually uses a lanthanide donor and a delayed reading to cut background.

For assay [2], the target named is T2, rM4 receptors (Rattus norvegicus, UniProt P08485).
T2 construct: expressed in transfected cells; host or cells: CHO cells
T2 sequence (P08485 1-478): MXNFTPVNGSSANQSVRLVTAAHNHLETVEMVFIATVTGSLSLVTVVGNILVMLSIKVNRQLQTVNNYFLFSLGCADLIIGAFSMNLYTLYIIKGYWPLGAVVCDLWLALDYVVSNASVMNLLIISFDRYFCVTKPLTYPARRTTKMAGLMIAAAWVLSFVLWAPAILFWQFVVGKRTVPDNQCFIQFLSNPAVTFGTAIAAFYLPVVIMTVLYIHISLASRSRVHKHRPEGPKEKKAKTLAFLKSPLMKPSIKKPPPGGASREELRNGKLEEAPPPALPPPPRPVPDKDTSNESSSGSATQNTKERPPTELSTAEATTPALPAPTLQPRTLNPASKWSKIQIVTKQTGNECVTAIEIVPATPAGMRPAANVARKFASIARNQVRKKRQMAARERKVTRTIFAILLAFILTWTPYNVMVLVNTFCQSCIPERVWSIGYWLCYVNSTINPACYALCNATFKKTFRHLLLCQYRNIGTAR
Kind of assay: Rat M4 PAM pERK assay. In kind it is cell-based. The note with it: CHO cells expressing rM4; EC20 of acetylcholine (10 nM final); TR-FRET.

Assay [3] concerns the target T3, human M4 receptor (Homo sapiens, UniProt P08173).
T3 construct: expressed in transfected cells
T3 sequence (P08173 1-479): T1 sequence (P08173 1-479)
Kind of assay: M4 GTPγS PAM assay. In kind it is biochemical. The note with it: membranes of CHO-K1 cells stably expressing human M4; EC20 acetylcholine 40 nM; 35S-GTP. Put shortly: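 CHO-K1 membranes stably expressing human M4, preincubated with compound and 0.1 μM GDP (final) in 20 mM HEPES, 10 mM MgCl2, 100 mM NaCl, pH 7.4, then EC20 acetylcholine (40 nM final). 35S-GTPγS binding 1 h at room temperature, filtration and scintillation counting.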

We go through 10 compounds from US20260209234A1, “SUBSTITUTED DIHYDROPYRROLO[3,4-D]PYRIMIDINE COMPOUNDS AND THEIR USE IN TREATING MEDICAL CONDITIONS” (Karuna Therapeutics, Inc., priority 2022, published 2026).

As for `Cc1nc2c(c(OCC3CC3)n1)CN(C(=O)CC1CN(c3ccnc(C(F)(F)F)c3)C1)C2` [Compound I-50, 1-(4-(Cyclopropylmethoxy)-2-methyl-5,7-dihydro-6H-pyrrolo[3,4-d]pyrimidin-6-yl)-2-(1-(2-(trifluoromethyl)pyridin-4-yl)azetidin-3-yl)ethan-1-one], the EC50 in assay [1], in assay [2] and in assay [3] was not below 2000 nM throughout.
Take `COc1nc(C#N)nc2c1C(C)N(C(=O)CC1CN(c3ccc(C4CC4)nc3)C1)C2` (single isomer, unassigned) [Compound I-33, 6-(2-(1-(6-Cyclopropylpyridin-3-yl)azetidin-3-yl)acetyl)-4-methoxy-5-methyl-6,7-dihydro-5H-pyrrolo[3,4-d]pyrimidine-2-carbonitrile]: the results for the EC50 in assay [1], in assay [2] and in assay [3] were not above 100 nM, 100 to 500 nM and 100 to 500 nM, respectively.
With `COc1nc(C)nc2c1CN(C(=O)CC1CN(c3ccnc(C(F)(F)F)c3)C1)C2` [Compound I-43, 1-(4-Methoxy-2-methyl-5,7-dihydro-6H-pyrrolo[3,4-d]pyrimidin-6-yl)-2-(1-(2-(trifluoromethyl)pyridin-4-yl)azetidin-3-yl)ethan-1-one], the figures for the EC50 in assay [1], in assay [2] and in assay [3] were 100 to 500 nM, 500 to 2000 nM and 100 to 500 nM, respectively.
Take `COc1nc(C#N)nc2c1C(C)N(C(=O)CC1CN(c3cccc(C(F)(F)F)c3)C1)C2` (single isomer, unassigned) [Compound I-15, 4-Methoxy-5-methyl-6-(2-(1-(3-(trifluoromethyl)phenyl)azetidin-3-yl)acetyl)-6,7-dihydro-5H-pyrrolo[3,4-d]pyrimidine-2-carbonitrile]: the EC50 in assay [1], in assay [2] and in assay [3] was not below 2000 nM in each case.
Turning to `COc1nc(C#N)nc2c1C(C)N(C(=O)CC1CN(c3ccnc(C(F)(F)F)c3)C1C)C2` (single isomer, unassigned) [Compound I-36, 4-Methoxy-5-methyl-6-(2-(2-methyl-1-(2-(trifluoromethyl)pyridin-4-yl)azetidin-3-yl)acetyl)-6,7-dihydro-5H-pyrrolo[3,4-d]pyrimidine-2-carbonitrile], the EC50 in assay [1], in assay [2] and in assay [3] was not above 100 nM in each case.
As for `Cc1nc2c(c(OC3CC3)n1)CN(C(=O)CC1CN(c3cccnc3)C1)C2` [Compound I-48, 1-(4-Cyclopropoxy-2-methyl-5,7-dihydro-6H-pyrrolo[3,4-d]pyrimidin-6-yl)-2-(1-(pyridin-3-yl)azetidin-3-yl)ethan-1-one], the EC50 was 500 to 2000 nM in assay [1], not below 2000 nM in assay [2] and not below 2000 nM in assay [3].
`COc1nc(C#N)nc2c1CN(C(=O)CC1CN(c3ccnc(C(F)(F)F)c3)C1)C2C` (single isomer, unassigned) [Compound I-35, 4-Methoxy-7-methyl-6-(2-(1-(2-(trifluoromethyl)pyridin-4-yl)azetidin-3-yl)acetyl)-6,7-dihydro-5H-pyrrolo[3,4-d]pyrimidine-2-carbonitrile]: the values for the EC50 in assay [1], in assay [2] and in assay [3] were 100 to 500 nM, 500 to 2000 nM and not below 2000 nM, respectively.
Taken in the same sequence, the figures for `COc1nc(C#N)nc2c1C(C)N(C(=O)CC1CN(c3ccnc(OC(F)F)c3)C1)C2` (single isomer, unassigned) [Compound I-28, 6-(2-(1-(2-(Difluoromethoxy)pyridin-4-yl)azetidin-3-yl)acetyl)-4-methoxy-5-methyl-6,7-dihydro-5H-pyrrolo[3,4-d]pyrimidine-2-carbonitrile] were not above 100 nM, 100 to 500 nM and not above 100 nM.
Taken in the same sequence, the figures for `COc1nc(C#N)nc2c1C(C)N(C(=O)CC1CN(c3cnnc(C(F)(F)F)c3)C1)C2` (single isomer, unassigned) [Compound I-25, 4-Methoxy-5-methyl-6-(2-(1-(6-(trifluoromethyl)pyridazin-4-yl)azetidin-3-yl)acetyl)-6,7-dihydro-5H-pyrrolo[3,4-d]pyrimidine-2-carbonitrile] were 100 to 500 nM, 500 to 2000 nM and 100 to 500 nM.
For the compound `COc1nc(C)nc2c1C(C)N(C(=O)CC1CN(c3cncnc3)C1)C2` (single isomer, unassigned) [Compound I-60, 1-(4-Methoxy-2,5-dimethyl-5,7-dihydro-6H-pyrrolo[3,4-d]pyrimidin-6-yl)-2-(1-(pyrimidin-5-yl)azetidin-3-yl)ethan-1-one], the EC50 in assay [1], in assay [2] and in assay [3] was not below 2000 nM each time.

What is called EC50 is the midpoint of the concentration-response curve.
